The supplement of paper PMC11208160

Test: recombinant UMI read abundance after kanamycin selection (control-corrected) (log10(CPM+1)); higher = more efficient recombination; extreme values may be limits of the assay; sequences stand for … in AGTGCAGAGAAAATCGGCCAGTTTTCTCTGCCTGCAGTCCGCATGCCGTGGGACCCCTTGGGTTCTAACCTGTTGCCTAGATTTATGCAGCGGACTGCCTTTCTCCCAAAGTGATAAACCGG…AGGTTGGTTTCACT; site = the 11-nt donor
How it was run: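 Sequenced counts of recombinant UMIs were turned into CPM, averaged across replicates and scaled with control-derived factors. The reported figure is log10(CPM+1). Those UMIs, each 12 nt long, tagged donor and donor-binding-loop pairs on a plasmid with a promoterless kanamycin gene, screened as a pool in Escherichia coli with IPTG (0.07 mM) plus kanamycin or without selection.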
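Further: IS621 bridge recombinase in Escherichia coli cells against a fixed T5 target plasmid.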

Sequence	recombinant UMI read abundance (log10)
GCTTACCCATGGACCGGTTTTCCCGGTAATCCGTATTTGAT (site GCTTTCCCTAT)	0
GCTTATCCATGGACCGGTTTTCCCGGTAATCCGTATTTGCT (site GATTATCCTAG)	0
GCTTATCCATGGACCGGTTTTCCCGGTAATCCGTATTTGCT (site GCTTATCCTAG)	1.03
GCTTATCCATGGACCGGTTTTCCCGGTAATCCGTATTTGCT (site GGTTATCCTAG)	0
GCTTATCCATGGACCGGTTTTCCCGGTAATCCGTATTTGCT (site GTTTATCCTAG)	0
GCTTCCGCATGGACCGGTTTTCCCGGTAATCCGTATTTGTT (site GCTTCCGCTAA)	1.48
GCTTCTACATGGACCGGTTTTCCCGGTAATCCGTATTTGTA (site GCTTCTACTTA)	0.541
GCTTGACCATGGACCGGTTTTCCCGGTAATCCGTATTTGAT (site GCTTGACCTAT)	0.00317
GCTTGACCATGGACCGGTTTTCCCGGTAATCCGTATTTGAT (site GCTTGCCCTAT)	0.00707
GCTTGACCATGGACCGGTTTTCCCGGTAATCCGTATTTGAT (site GCTTGGCCTAT)	0.117
GCTTGACCATGGACCGGTTTTCCCGGTAATCCGTATTTGAT (site GCTTGTCCTAT)	0.00374
GCTTGCCCATGGACCGGTTTTCCCGGTAATCCGTATTTGAA (site GCTTGCCCTAT)	0
GCTTGCCCATGGACCGGTTTTCCCGGTAATCCGTATTTGAA (site GCTTGCCCTCT)	0.00774
GCTTGCCCATGGACCGGTTTTCCCGGTAATCCGTATTTGAA (site GCTTGCCCTGT)	0
GCTTGCCCATGGACCGGTTTTCCCGGTAATCCGTATTTGAA (site GCTTGCCCTTT)	0.0264
GCTTGCCCATGGACCGGTTTTCCCGGTAATCCGTATTTGAC (site GCTTGCCCTAT)	0
GCTTGCCCATGGACCGGTTTTCCCGGTAATCCGTATTTGAC (site GCTTGCCCTCT)	0.0563
GCTTGCCCATGGACCGGTTTTCCCGGTAATCCGTATTTGAC (site GCTTGCCCTGT)	0
GCTTGCCCATGGACCGGTTTTCCCGGTAATCCGTATTTGAC (site GCTTGCCCTTT)	0.0621
GCTTGGACATGGACCGGTTTTCCCGGTAATCCGTATTTGGA (site GCTTGGACTTC)	0.32
GGAAATCCATGGACCGGTTTTCCCGGTAATCCGTATTTGGG (site GGAAATCCTCC)	0.00368
GGAACGTCATGGACCGGTTTTCCCGGTAATCCGTATTTGTT (site GGAACGTCTAA)	0.993
GGAACGTCATGGACCGGTTTTCCCGGTAATCCGTATTTGTT (site GGCACGTCTAA)	0.00816
GGAACGTCATGGACCGGTTTTCCCGGTAATCCGTATTTGTT (site GGGACGTCTAA)	0.28
GGAACGTCATGGACCGGTTTTCCCGGTAATCCGTATTTGTT (site GGTACGTCTAA)	0.00512

Sequence	recombinant UMI read abundance (log10)
GGAACTACATGGACCGGTTTTCCCGGTAATCCGTATTTGCC (site GGAACTACTGG)	1.05
GGAAGCACATGGACCGGTTTTCCCGGTAATCCGTATTTGGG (site GGAAGCACTCC)	0.0218
GGAAGTACATGGACCGGTTTTCCCGGTAATCCGTATTTGAC (site GGAAGTACTGT)	2.57
GGAAGTGCATGGACCGGTTTTCCCGGTAATCCGTATTTGAA (site GGAAGTGCTTT)	2.27
GGAATCTCATGGACCGGTTTTCCCGGTAATCCGTATTTGAA (site GGAATCTCTTT)	2.55
GGAATGTCATGGACCGGTTTTCCCGGTAATCCGTATTTGTT (site GGAATGTCTAA)	2.44
GGAGACGCATGGACCGGTTTTCCCGGTAATCCGTATTTGGT (site GGAGACGCTAC)	0.461
GGAGCCTCATGGACCGGTTTTCCCGGTAATCCGTATTTGAC (site GGAGCCTCTGT)	2.15
GGAGCTACATGGACCGGTTTTCCCGGTAATCCGTATTTGAG (site GGAGCTACTCT)	0.606
GGAGGCGCATGGACCGGTTTTCCCGGTAATCCGTATTTGCC (site GGAGGCGCTGG)	3.44
GGAGGGGCATGGACCGGTTTTCCCGGTAATCCGTATTTGGT (site GGAGAGGCTAC)	0.335
GGAGGGGCATGGACCGGTTTTCCCGGTAATCCGTATTTGGT (site GGAGCGGCTAC)	0.00457
GGAGGGGCATGGACCGGTTTTCCCGGTAATCCGTATTTGGT (site GGAGGGGCTAC)	0.699
GGAGGGGCATGGACCGGTTTTCCCGGTAATCCGTATTTGGT (site GGAGTGGCTAC)	0.0205
GGAGTGGCATGGACCGGTTTTCCCGGTAATCCGTATTTGGG (site GGAGTGGCTAC)	0.497
GGAGTGGCATGGACCGGTTTTCCCGGTAATCCGTATTTGGG (site GGAGTGGCTCC)	0.779
GGAGTGGCATGGACCGGTTTTCCCGGTAATCCGTATTTGGG (site GGAGTGGCTGC)	0
GGAGTGGCATGGACCGGTTTTCCCGGTAATCCGTATTTGGG (site GGAGTGGCTTC)	0.00897
GGAGTTGCATGGACCGGTTTTCCCGGTAATCCGTATTTGGT (site GGAGTAGCTAC)	0.089
GGAGTTGCATGGACCGGTTTTCCCGGTAATCCGTATTTGGT (site GGAGTCGCTAC)	1.05
GGAGTTGCATGGACCGGTTTTCCCGGTAATCCGTATTTGGT (site GGAGTGGCTAC)	0.00345
GGAGTTGCATGGACCGGTTTTCCCGGTAATCCGTATTTGGT (site GGAGTTGCTAC)	0.861
GGATACACATGGACCGGTTTTCCCGGTAATCCGTATTTGGG (site GGATACACTCC)	0.348
GGATAGACATGGACCGGTTTTCCCGGTAATCCGTATTTGCT (site GGATAGACTAG)	2.78
GGATAGACATGGACCGGTTTTCCCGGTAATCCGTATTTGCT (site GGATAGACTCG)	0.855

Sequence	recombinant UMI read abundance (log10)
GGATAGACATGGACCGGTTTTCCCGGTAATCCGTATTTGCT (site GGATAGACTGG)	2.33
GGATAGACATGGACCGGTTTTCCCGGTAATCCGTATTTGCT (site GGATAGACTTG)	1.1
GGATAGCCATGGACCGGTTTTCCCGGTAATCCGTATTTGAG (site GGATAGCCTCT)	0.00752
GGATAGCCATGGACCGGTTTTCCCGGTAATCCGTATTTGCC (site GGATAGACTGG)	0
GGATAGCCATGGACCGGTTTTCCCGGTAATCCGTATTTGCC (site GGATAGCCTGG)	0
GGATAGCCATGGACCGGTTTTCCCGGTAATCCGTATTTGCC (site GGATAGGCTGG)	0
GGATAGCCATGGACCGGTTTTCCCGGTAATCCGTATTTGCC (site GGATAGTCTGG)	2.42
GGATAGGCATGGACCGGTTTTCCCGGTAATCCGTATTTGCC (site GGATAGACTGG)	1.94
GGATAGGCATGGACCGGTTTTCCCGGTAATCCGTATTTGCC (site GGATAGCCTGG)	0.855
GGATAGGCATGGACCGGTTTTCCCGGTAATCCGTATTTGCC (site GGATAGGCTGG)	2.44
GGATAGGCATGGACCGGTTTTCCCGGTAATCCGTATTTGCC (site GGATAGTCTGG)	0.642
GGATAGTCATGGACCGGTTTTCCCGGTAATCCGTATTTGCC (site GGATAGACTGG)	2.31
GGATAGTCATGGACCGGTTTTCCCGGTAATCCGTATTTGCC (site GGATAGCCTGG)	0
GGATAGTCATGGACCGGTTTTCCCGGTAATCCGTATTTGCC (site GGATAGGCTGG)	0
GGATAGTCATGGACCGGTTTTCCCGGTAATCCGTATTTGCC (site GGATAGTCTGG)	2.79
GGATCATCATGGACCGGTTTTCCCGGTAATCCGTATTTGTG (site GGATCATCTCA)	0.926
GGATCGACATGGACCGGTTTTCCCGGTAATCCGTATTTGCC (site GGATAGACTGG)	1.48
GGATCGACATGGACCGGTTTTCCCGGTAATCCGTATTTGCC (site GGATCGACTGG)	1.28
GGATCGACATGGACCGGTTTTCCCGGTAATCCGTATTTGCC (site GGATGGACTGG)	0
GGATCGACATGGACCGGTTTTCCCGGTAATCCGTATTTGCC (site GGATTGACTGG)	0
GGATCGCCATGGACCGGTTTTCCCGGTAATCCGTATTTGCG (site GGATCGCCTCG)	0.0649
GGATGGACATGGACCGGTTTTCCCGGTAATCCGTATTTGCC (site GGATAGACTGG)	2.17
GGATGGACATGGACCGGTTTTCCCGGTAATCCGTATTTGCC (site GGATCGACTGG)	0
GGATGGACATGGACCGGTTTTCCCGGTAATCCGTATTTGCC (site GGATGGACTGG)	2.47
GGATGGACATGGACCGGTTTTCCCGGTAATCCGTATTTGCC (site GGATTGACTGG)	0
